Measurements from patent US6761895B2, “Drug delivery system for averting pharmacokinetic drug interaction and method thereof” (priority 2000, dated 2004).

Key:
[1] = with administration of cimetidine, concomitant use with ketoconazole; cited from earlier work
[2] = tested on: carriers on the epithelial cells of the small intestines; details: cefadroxil concomitantly administered with cefalexine; cited from earlier work
CYP3A4 [3] = experiment: Test Example 4: midazolam plasma AUC in dogs, alone or with concomitant ketoconazole; details: male, beagle, dog, po, 4 mg/dog
Procedure: (§1) (1) Aqueous solution for oral administration containing midazolam: After preparing commercial midazolam injectable liquid (brand name: Dormicum® injection) to a concentration of 0.2 mg/ml with aqueous hydrochloric acid solution (pH of 3), HPMC2910 was added at 3-times the amount of midazolam to obtain a liquid for oral administration.
The aqueous solution for oral administration containing midazolam was orally administered(4 mg/dog) using a catheter for oral administration to male beagle dogs (n=2) that had been fasted for approximately 20 hours.

CYP3A4 [4] = experiment: Test Example 3: midazolam plasma AUC in dogs, alone or with concomitant diltiazem; details: male, beagle, dog, po, 4 mg/dog
Procedure: The aqueous solution for oral administration containing midazolam was orally administered (4 mg/dog) using a catheter for oral administration to a male beagle dogs (n=3) that had been fasted for approximately 20 hours.

CYP3A4 [5] = experiment: Test Example 2: midazolam plasma AUC in dogs, alone or with concomitant conivaptan; details: male, beagle, dog, po, 4 mg/dog
Procedure: The following experiments were conducted using midazolam, which is metabolized CYP3A4, as a concomitant drug of conivaptan hydrochloride.
as §1
After administration, blood was collected from the veins of the front legs and the plasma concentration of midazolam was determined by the HPLC/UV method over time.
Thirty minutes after administration the aqueous solution for oral administration containing midazolam was orally administered using a catheter for oral administration (4 mg/dog). After midazolam administration, blood was collected from the veins of the front legs and the plasma concentration of midazolam was determined by the HPLC/UV method over time.
Thirty minutes after administration an aqueous solution for oral administration containing midazolam (4 mg/dog) was orally administered using a catheter for oral administration. After midazolam administration, blood was collected from the veins of the front legs and the plasma concentration of midazolam was determined by the HPLC/UV method over time.

## CN/C(=N/CCSCc1nc[nH]c1C)NC#N [cimetidine]
[1]
  gastric pH: 3 to 5

## CC1=C(C(=O)O)N2C(=O)[C@@H](NC(=O)[C@H](N)c3ccc(O)cc3)[C@H]2SC1 [cefadroxil]
[2]
  change in cefadroxil plasma concentration: reduction by approximately half

## Cc1ncc2n1-c1ccc(Cl)cc1C(c1ccccc1F)=NC2 [midazolam]
CYP3A4 [3]
  AUC: 68.7 ng·h/mL
CYP3A4 [4]
  AUC: 55 ng·h/mL
CYP3A4 [5]
  AUC: 9 ± 6 ng·h/mL
